The text below walks through data of patent US20080103169A1, “COMPOSITIONS COMPRISING ACID LABILE PROTON PUMP INHIBITING AGENTS, AT LEAST ONE OTHER […] ACTIVE AGENT AND METHODS OF USING SAME” (priority 2006, published 2008).

Like-named read-outs stand apart in the source and are kept apart here.

Data set [1] in a line: PPI half-life (serum concentration profile), n of 1 studies. Type of data set: in vivo, human. The conditions noted are these: for half-life: human, serum, Day 1, n of 1. The source says:
The measure of a PPIs activity can be predicted by looking at AUC above 1 micromole. The elimination rate (Kel) is the only variable that can be changed to increase the AUC for a given PPI. Half-life=0.693/Kel
These are all n of 1 studies all performed on the same subject. (Unless otherwise stated, 1.68 g NaHCO3 was used as buffering agent)

The target of data set [2] is T1, H+, K+-ATPase (Rattus norvegicus, UniProt P09626).
T1 construct: host or cells: rats (in vivo treatment; endogenous gastric enzyme)
Particulars: cited from earlier work.

Setting [3] is: oral, 120 mg, IR 120 mg given alone.
The mark [4] stands for this setting: oral, given as OME-IR 120 mg+Tenatoprazole IR 40 mg+Cimetidine 200 mg.
Setting [5] is: oral, given as OME-IR 120 mg+Tenatoprazole IR 40 mg.

What is called half-life is the time in which the quantity being followed falls by half. Lower therefore signals fast loss.

T1 sequence (P09626 whole entry): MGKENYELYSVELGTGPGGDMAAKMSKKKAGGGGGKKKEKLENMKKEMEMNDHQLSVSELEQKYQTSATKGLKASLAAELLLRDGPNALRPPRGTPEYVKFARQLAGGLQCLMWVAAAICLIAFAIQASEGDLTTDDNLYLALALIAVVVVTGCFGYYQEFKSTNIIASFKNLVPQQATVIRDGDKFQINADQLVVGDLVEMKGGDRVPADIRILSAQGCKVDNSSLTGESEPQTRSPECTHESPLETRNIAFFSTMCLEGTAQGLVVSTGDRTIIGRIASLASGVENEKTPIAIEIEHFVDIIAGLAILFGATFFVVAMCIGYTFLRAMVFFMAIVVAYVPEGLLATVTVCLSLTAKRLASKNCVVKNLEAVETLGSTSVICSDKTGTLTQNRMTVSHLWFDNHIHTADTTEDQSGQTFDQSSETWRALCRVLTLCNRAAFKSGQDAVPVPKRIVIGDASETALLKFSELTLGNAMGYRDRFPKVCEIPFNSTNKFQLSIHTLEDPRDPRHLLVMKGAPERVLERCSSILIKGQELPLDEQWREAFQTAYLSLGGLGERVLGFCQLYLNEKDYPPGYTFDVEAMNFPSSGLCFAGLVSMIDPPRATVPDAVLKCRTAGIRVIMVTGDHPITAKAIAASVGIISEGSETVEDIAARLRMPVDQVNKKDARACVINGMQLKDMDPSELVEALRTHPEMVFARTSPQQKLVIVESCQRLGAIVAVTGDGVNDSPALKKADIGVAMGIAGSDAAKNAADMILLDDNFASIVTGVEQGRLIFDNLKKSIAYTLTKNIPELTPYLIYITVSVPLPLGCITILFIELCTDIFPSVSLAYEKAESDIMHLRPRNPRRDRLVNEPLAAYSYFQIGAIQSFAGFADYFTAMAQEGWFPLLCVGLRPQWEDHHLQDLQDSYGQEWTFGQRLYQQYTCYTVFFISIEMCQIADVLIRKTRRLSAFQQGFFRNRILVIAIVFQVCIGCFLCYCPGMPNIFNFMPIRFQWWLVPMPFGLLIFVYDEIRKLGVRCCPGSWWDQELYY
T1 sequence (P18598 whole entry partner): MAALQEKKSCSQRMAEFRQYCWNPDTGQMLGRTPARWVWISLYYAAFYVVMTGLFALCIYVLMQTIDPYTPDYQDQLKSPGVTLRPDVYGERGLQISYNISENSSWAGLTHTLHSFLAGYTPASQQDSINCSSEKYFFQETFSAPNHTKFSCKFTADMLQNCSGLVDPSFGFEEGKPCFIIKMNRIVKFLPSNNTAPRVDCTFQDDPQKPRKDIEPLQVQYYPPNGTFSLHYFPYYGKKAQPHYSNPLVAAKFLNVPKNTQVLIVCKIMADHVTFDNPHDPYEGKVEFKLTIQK

In data set [1] (oral, given as OME-IR 80 mg+Lansoprazole IR 80 mg), `Cc1c(OCC(F)(F)F)ccnc1C[S+]([O-])c1nc2ccccc2[nH]1` (stereo not shown) [lansoprazole] gave a half-life of 3.1 h.

For the compound `COc1ccc2nc([S@@+]([O-])Cc3ncc(C)c(OC)c3C)[nH]c2c1` [esomeprazole], in data set [1] (40 mg, 40 mg given alone), the half-life is 1.4 h.

Turning to `COc1ccc2[nH]c([S+]([O-])Cc3ncc(C)c(OC)c3C)nc2c1` (stereo not shown) [omeprazole, 5-methoxy-2-[[(4-methoxy-3,5-dimethyl-2-pyridinyl)methyl]sulfinyl]-1H benzimidazole], the “effect of omeprazole on H+, K+-ATPase activity” value is on record as “much reduced effect” in data set [2] (rats pretreated with cimetidine, compared to control (no pretreatment)) and “increased the effect of omeprazole” in data set [2] (rats pretreated with secretogue carbachol). Further, the half-life of omeprazole result in data set [1] (administered with cimetidine (FIG. 11)) was “three”. Also, the half-life in data set [1] (setting [3]) was 1.8 h; in data set [1] (oral, given as OME-IR 120 mg+Cimetidine 200 mg) it was 2.1 h; in data set [1] (setting [4]), 1.8 h; in data set [1] (setting [5]), 1.8 h.

For `COc1ccc2[nH]c([S+]([O-])Cc3ncc(C)c(OC)c3C)nc2n1` (stereo not shown) [tenatoprazole, 5-methoxy-2-[[(4-methoxy-3,5-dimethyl-2-pyridyl)methyl]sulfinyl]imidazo[4,5-b]pyridine], the half-life in data set [1] (oral, 40 mg, 40 mg given alone) was 7 h; in data set [1] (setting [3]) it was 8.7 h; in data set [1] (setting [4]), 12.9 h; in data set [1] (setting [5]), 12.9 h.
